From PubChem BioAssay (NCI)
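All cell lines were grown in 96-well plates and treated with compound for 48 hours. At the GI50, growth is halved. Definition used: TGI = concentration required for complete inhibition of growth.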

Assays:
Assay in all cases: inhibition of tumour cell growth, NCI panel, 48 h
[1] = system: T-47D breast
[2] = system: OVCAR-5 ovarian
[3] = system: RXF 393 renal
[4] = system: DU-145 prostate
[5] = system: K-562 leukemia
[6] = system: CCRF-CEM leukemia
[7] = system: NCI/ADR-RES ovarian
[8] = system: PC-3 prostate
[9] = system: M14 melanoma
[10] = system: MALME-3M melanoma

Row | SMILES | GI50 [1] [µM] | TGI [1] [µM] | GI50 [2] [µM] | TGI [2] [µM] | GI50 [3] [µM] | TGI [3] [µM] | GI50 [4] [µM] | TGI [4] [µM] | GI50 [5] [µM] | TGI [5] [µM] | GI50 [6] [µM] | TGI [6] [µM] | GI50 [7] [µM] | TGI [7] [µM] | GI50 [8] [µM] | TGI [8] [µM] | GI50 [9] [µM] | TGI [9] [µM] | TGI [10] [µM] | GI50 [10] [µM]
1 | Cc1nn(CN2CCN(C)CC2)c(=S)n1/N=C/c1cccc2ccccc12 | 17.6 | 48.2 | 19.6 | 40.4 | 18.2 | 34.1 | 31.7 | > 100 | 15.2 | 37.5 | 23.4 | 55.3 | 19.3 | 36.3 | 22.1 | 64 | 18.6 | 39.3 | – | –
2 | OCCC1(O)CCC(O)CC1 (stereo not drawn) | – | – | – | > 100 | – | – | – | – | – | > 100 | – | > 100 | – | – | – | – | – | > 100 | > 100 | –
3 | COc1cc(/C=C/c2cc(/C=C/c3ccc(O)c(OC)c3)n(-c3ccccc3)n2)ccc1O | 0.645 | 2.6 | 1.27 | 4.51 | 0.258 | 0.888 | 0.399 | 1.4 | – | – | 0.127 | > 100 | 0.0874 | 3.85 | 0.332 | 12.7 | – | – | – | –
4 | COC(=O)CC(=O)C[P+](c1ccccc1)(c1ccccc1)c1ccccc1 | – | – | – | – | – | > 218 | – | – | – | > 218 | – | > 218 | – | – | – | – | – | – | > 218 | –
5 | COC(=O)C1=C(C(=O)OC)C2C=CC1C1C(Cl)=C(Cl)C21 (stereo not drawn) | – | – | – | > 100 | – | > 100 | – | – | – | > 100 | – | > 100 | – | – | – | – | – | > 100 | > 100 | –
6 | CCN(CC)c1c(C(=O)/C=C/c2ccccc2)c(-c2ccccc2)nn(C)c1=O | – | – | – | > 100 | – | > 100 | – | – | – | > 100 | – | – | – | – | – | – | – | – | > 100 | –
7 | COc1ccc(OC)c(NC(=O)C(=O)C(C(C)=O)c2nc3ccc(Cl)cc3[nH]c2=O)c1 (stereo not drawn) | – | – | – | > 50 | – | > 50 | – | – | – | > 50 | – | > 5 | – | – | – | – | – | > 50 | > 50 | –
8 | CCCCCCCCCCCCCC(=O)OC1CC(=O)OC1CO (stereo not drawn) | – | – | – | > 100 | – | > 100 | – | – | – | 58.8 | – | 74.4 | – | – | – | – | – | 39.7 | > 100 | –
9 | COC(=O)C(=O)C(C(=O)C=C(C)C)C(=O)C(=O)Nc1cc(C(F)(F)F)ccc1Cl (stereo not drawn) | – | – | – | > 100 | – | > 100 | – | – | – | > 100 | – | 71.2 | – | – | – | – | – | > 100 | > 100 | –
10 | COc1cc(C2c3cc4c(cc3C(NCC(O)CO)C3COC(=O)[C@H]23)OCO4)cc(OC)c1OC (stereo partly drawn) | – | – | – | > 100 | – | – | – | – | – | > 100 | – | > 100 | – | – | – | – | – | > 100 | > 100 | –
11 | O=C1C=CC(=Nc2ccc3c(c2)C(Br)c2ccccc2-3)O1 (stereo not drawn) | – | – | – | – | – | > 100 | – | – | – | > 100 | – | > 100 | – | – | – | – | – | > 100 | > 100 | –
12 | Cc1ccc(S(=O)(=O)C(CC(=O)N2CCCC2)C(=O)c2ccccc2)cc1 (stereo not drawn) | – | – | – | > 100 | – | > 100 | – | – | – | > 100 | – | 62.5 | – | – | – | – | – | > 100 | > 100 | –
13 | CC1=C(C(=O)Nc2ccc([N+](=O)[O-])cc2)C(c2ccc(N(C)C)cc2)C(C(=O)Nc2ccc([N+](=O)[O-])cc2)=C(C)N1 | – | – | – | 67 | – | 30.9 | – | – | – | 37.6 | – | 60.7 | – | – | – | – | – | 40.9 | 52.6 | –
14 | CC[CH2][Pb]([CH2]CC)([CH2]CC)[O]C(=O)C(F)(F)F | – | – | 0.18 | 0.636 | 0.0724 | 0.277 | 0.188 | 0.516 | 0.0918 | 0.552 | 0.0906 | 0.775 | 0.298 | 1.06 | 0.122 | 0.294 | 0.0911 | 0.33 | 0.348 | 0.0894
15 | COC(=O)C[C@H]1CCC2(OCCO2)[C@]1(C)C(=O)OC | – | – | – | > 100 | – | > 100 | – | – | – | > 100 | – | > 100 | – | – | – | – | – | > 100 | > 100 | –
16 | N#CC1(Cc2ccc(N)cc2)c2ccccc2C=CN1C(=O)c1ccccc1 (stereo not drawn) | – | – | – | > 100 | – | > 100 | – | – | – | > 100 | – | > 100 | – | – | – | – | – | > 100 | > 100 | –
17 | COc1ccc2cc1Oc1ccc(cc1)CC1c3cc(c(OC)cc3CCN1C)Oc1c3c(cc4c1C(C2)N(C)CC4)OCO3 (stereo not drawn) | – | – | – | 32.4 | – | 6.24 | – | – | – | 4.17 | – | 31.7 | – | – | – | – | – | 3.52 | – | –
18 | Cc1ccc(S(=O)(=O)N(CCOc2ccc(/C(N)=N/Cl)cc2)CCOc2ccc(/C(N)=N\Cl)cc2)cc1 | 15.3 | 81.7 | > 100 | > 100 | – | – | 16.1 | 48 | 4.17 | 24 | 11.6 | > 100 | > 100 | > 100 | 33.7 | > 100 | 35.1 | > 100 | 83.6 | 19.6
19 | CCCCCCCCCCCC(=O)CC(=O)c1c(O)cccc1O | – | – | – | 36.4 | – | 34.5 | – | – | – | 76.4 | – | > 100 | – | – | – | – | – | 32.9 | 32.6 | –
20 | N#CSCC1CC(O)(c2ccccc2)C(c2ccccc2)C(c2ccc(Cl)cc2)O1 (stereo not drawn) | 1.07 | 3.53 | 2.13 | 3.86 | 1.62 | 3.24 | 2.02 | 4.67 | 1.37 | 5.42 | – | – | 1.67 | 3.43 | 1.85 | 4.98 | 1.53 | 3.15 | 3.02 | 1.52
21 | CC(C)CC(=O)[O-].CC(C)CC(=O)[O-].N.N.N.N.[Co+3].[O-][Cl+3]([O-])([O-])[O-] | – | – | > 100 | > 100 | – | – | – | – | > 100 | > 100 | > 100 | > 100 | – | – | – | – | > 100 | > 100 | > 100 | > 100
22 | CCCCCCCCCC[C@@H](O)[C@@H]1CC[C@H]([C@H]2CC[C@@H]([C@@H](O)CCCCCCCCCC[C@H]3CC(CC(C)=O)C(=O)O3)O2)O1 (stereo partly drawn) | – | – | – | 74.3 | – | – | – | – | – | 33.4 | – | 33.4 | – | – | – | – | – | 35.3 | 19.1 | –
